pIC50: −log10 of the molar value.
How the values were obtained:
Format in all cases: biochemical
human GST-CLK1 = molecular target: T1, human GST-CLK1 (Homo sapiens, UniProt P49759); experiment: GST-CLK1 enzyme inhibition, ADP-Glo kinase assay; conditions: ATP 10 μM, GST-CLK1 129-end
T1 construct: purified human GST-CLK1 (129-end, SignalChem) enzyme; purchased SignalChem
Method in brief: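 Human GST-CLK1 (129-end, 3 ng) reacted with substrate and 10 μM ATP for 1 h at 25° C in 40 mM Tris-HCl pH 7.4, 20 mM MgCl2, 0.5 mg/mL BSA, 50 μM DTT. ADP-Glo luminescence was normalised to solvent control; IC50 (nM) from 3 data sets.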

LRRK2 (G2019S) = LRRK2 (G2019S) (Homo sapiens, UniProt Q5S007, G2019S); experiment: LRRK2 G2019S enzyme inhibition, ADP-Glo kinase assay; parameters: purchased SignalChem L10-12GG; conditions: ATP 25 μM
Sequence of LRRK2 (G2019S) (Q5S007 970-2527 G2019S limits assumed): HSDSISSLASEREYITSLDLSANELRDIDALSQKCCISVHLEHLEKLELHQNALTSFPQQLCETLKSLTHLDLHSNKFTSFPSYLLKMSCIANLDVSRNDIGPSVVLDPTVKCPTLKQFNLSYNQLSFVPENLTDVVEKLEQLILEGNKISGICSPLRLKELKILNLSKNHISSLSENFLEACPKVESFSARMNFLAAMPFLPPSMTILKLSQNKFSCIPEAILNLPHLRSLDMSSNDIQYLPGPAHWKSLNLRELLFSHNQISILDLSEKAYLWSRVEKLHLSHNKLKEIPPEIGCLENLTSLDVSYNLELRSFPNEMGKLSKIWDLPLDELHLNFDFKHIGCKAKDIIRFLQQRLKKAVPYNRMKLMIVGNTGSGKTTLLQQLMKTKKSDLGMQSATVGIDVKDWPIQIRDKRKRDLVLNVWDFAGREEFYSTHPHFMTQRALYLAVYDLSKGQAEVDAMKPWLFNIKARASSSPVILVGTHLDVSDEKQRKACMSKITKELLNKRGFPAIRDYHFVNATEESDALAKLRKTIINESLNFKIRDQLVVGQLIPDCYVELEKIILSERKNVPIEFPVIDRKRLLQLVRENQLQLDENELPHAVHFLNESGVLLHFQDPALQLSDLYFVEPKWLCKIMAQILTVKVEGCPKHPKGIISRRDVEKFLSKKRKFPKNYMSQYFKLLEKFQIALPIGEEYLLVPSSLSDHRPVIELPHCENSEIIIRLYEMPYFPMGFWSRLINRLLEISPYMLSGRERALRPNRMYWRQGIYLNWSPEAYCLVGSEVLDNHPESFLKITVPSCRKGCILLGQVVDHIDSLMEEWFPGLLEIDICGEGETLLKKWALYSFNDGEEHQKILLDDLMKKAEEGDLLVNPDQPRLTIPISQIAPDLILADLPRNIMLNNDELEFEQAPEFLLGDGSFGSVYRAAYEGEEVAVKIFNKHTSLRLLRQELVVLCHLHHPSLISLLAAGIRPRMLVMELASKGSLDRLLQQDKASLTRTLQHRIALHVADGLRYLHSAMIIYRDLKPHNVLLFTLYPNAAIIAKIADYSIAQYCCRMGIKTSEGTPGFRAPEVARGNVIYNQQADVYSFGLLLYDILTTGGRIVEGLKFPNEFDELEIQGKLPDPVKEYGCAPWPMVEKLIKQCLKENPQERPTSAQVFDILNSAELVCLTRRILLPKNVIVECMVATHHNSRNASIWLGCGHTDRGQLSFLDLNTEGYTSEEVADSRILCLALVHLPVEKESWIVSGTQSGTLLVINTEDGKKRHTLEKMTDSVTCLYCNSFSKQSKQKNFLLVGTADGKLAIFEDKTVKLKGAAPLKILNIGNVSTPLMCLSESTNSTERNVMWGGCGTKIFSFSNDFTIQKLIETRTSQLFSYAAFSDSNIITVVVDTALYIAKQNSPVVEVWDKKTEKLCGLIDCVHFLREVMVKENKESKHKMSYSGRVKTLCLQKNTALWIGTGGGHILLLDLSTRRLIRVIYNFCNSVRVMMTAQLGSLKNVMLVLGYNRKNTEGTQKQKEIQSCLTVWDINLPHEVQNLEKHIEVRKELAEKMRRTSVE
Method in brief: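 Purified human LRRK2 G2019S (16 ng) with 25 μM ATP and 0.2 μg substrate, 2 h at 25° C. in Tris-HCl pH 7.4, MgCl2, BSA, DTT buffer; compounds at 12 final concentrations, 50 μM down to 0.000001024 μM. ADP-Glo luminescence versus solvent control gave IC50.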

human GST-DYRK1A = molecular target: T2, human GST-DYRK1A (Homo sapiens, UniProt Q13627); experiment: GST-DYRK1A enzyme inhibition, ADP-Glo kinase assay; conditions: ATP 10 μM, GST-DYRK1A full length, read-out: DYRK1 IC50
T2 construct: purified human GST-DYRK1A (full length, Thermo Scientifics) enzyme; purchased Thermo Scientifics
Method in brief: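 Full-length human GST-DYRK1A (10 ng) with 10 μM ATP and specific substrate in 40 mM Tris-HCl pH 7.4, 20 mM MgCl2, 0.5 mg/mL BSA, 50 μM DTT, 1 h at 25 °C. ADP formation read by ADP-Glo luminescence relative to solvent control; IC50 from three data sets.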

T1 sequence (P49759 129-484 limits assumed): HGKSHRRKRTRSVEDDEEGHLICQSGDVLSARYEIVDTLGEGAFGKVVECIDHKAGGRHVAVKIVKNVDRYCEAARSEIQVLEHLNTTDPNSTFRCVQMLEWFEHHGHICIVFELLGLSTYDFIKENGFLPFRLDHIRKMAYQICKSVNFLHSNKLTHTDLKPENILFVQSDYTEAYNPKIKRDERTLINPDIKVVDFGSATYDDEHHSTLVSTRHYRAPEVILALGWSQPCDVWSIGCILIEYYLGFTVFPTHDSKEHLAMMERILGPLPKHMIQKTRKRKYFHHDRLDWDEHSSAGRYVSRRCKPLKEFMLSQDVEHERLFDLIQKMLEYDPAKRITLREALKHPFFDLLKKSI

pIC50 (human GST-CLK1) | pIC50 (LRRK2 (G2019S)) | pIC50 (human GST-DYRK1A) | SMILES
> 7.00 | > 7.00 | > 7.00 | CCCCNc1nc(Nc2ccc(C(=O)N3CCN(C4COC4)CC3)c3c2OCCO3)nc2[nH]cc(C(F)(F)F)c12 [Example 429, (8-((4-(butylamino)-5-(trifluoromethyl)-7H-pyrrolo[2,3-d]pyrimidin-2-yl)amino)-2,3-dihydrobenzo[b] [1,4]dioxin-5-yl) (4-(oxetan-3-yl)piperazin-1-yl)methanone]
> 7.00 | > 7.00 | 6.00 to 6.52 | O=C(c1ccc(Nc2nc(NC3CC3)c3c(C(F)(F)F)c[nH]c3n2)c2c1CCO2)N1CCOCC1 [Example 433, (7-((4-(cyclo-propylamino)-5-(trifluoromethyl)-7H-pyrrolo[2,3-d]pyrimidin-2-yl)amino)-2,3-dihydrobenzo-furan-4-yl) (morpholino) methanone]
6.00 to 6.52 | > 7.00 | 6.00 to 6.52 | CC[C@H](C)Nc1nc(Nc2ccc(C(=O)N3CCOCC3)c3c2OCC3)nc2[nH]cc(C(F)(F)F)c12 [Example 451, (S)-(7-((4-(sec-butylamino)-5-(trifluoromethyl)-7H-pyrrolo[2,3-d]pyrimidin-2-yl)amino)-2,3-dihydrobenzo-furan-4-yl) (morpholino) methanone]
> 7.00 | > 7.00 | > 7.00 | O=C(c1ccc(Nc2nc(N[C@H]3CCOC3)c3c(C(F)(F)F)c[nH]c3n2)c2c1CCO2)N1CCOCC1 [Example 455]

The next lines start with the molecule.

SMILES | pIC50 (human GST-CLK1) | pIC50 (LRRK2 (G2019S)) | pIC50 (human GST-DYRK1A)
CCCCNc1nc(Nc2ccc(P3(=O)CCN(C4CC4)CC3)cc2OC)nc2[nH]cc(C(F)(F)F)c12 [Example 428, 4-(4-((4-(butylamino)-5-(trifluoromethyl)-7H-pyrrolo[2,3-d]pyrimidin-2-yl)amino)-3-methoxyphenyl)-1-cyclopropyl-1,4-azaphosphinane 4-oxide] | 6.00 to 6.52 | > 7.00 | 6.00 to 6.52
CC(C)CNc1nc(Nc2ccc(C(=O)N3CCOCC3)c3c2OCC3)nc2[nH]cc(C(F)(F)F)c12 [Example 447, (7-((4-(iso-butylamino)-5-(trifluoromethyl)-7H-pyrrolo[2,3-d]pyrimidin-2-yl)amino)-2,3-dihydrobenzo-furan-4-yl) (morpholino) methanone] | 6.00 to 6.52 | > 7.00 | 6.00 to 6.52
CC(C)Nc1nc(Nc2ccc(C(=O)N3CCOCC3)c3c2OCC3)nc2[nH]cc(C(F)(F)F)c12 [Example 449, (7-((4-(isopropylamino)-5-(trifluoromethyl)-7H-pyrrolo[2,3-d]pyrimidin-2-yl)amino)-2,3-dihydrobenzo-furan-4-yl) (morpholino) methanone] | > 7.00 | > 7.00 | 6.00 to 6.52
O=C(c1ccc(Nc2nc(NC3CCCC3)c3c(C(F)(F)F)c[nH]c3n2)c2c1CCO2)N1CCOCC1 [Example 453, (7-((4-(cyclo-pentylamino)-5-(trifluoromethyl)-7H-pyrrolo[2,3-d]pyrimidin-2-yl)amino)-2,3-dihydrobenzo-furan-4-yl) (morpholino) methanone] | 6.00 to 6.52 | > 7.00 | 6.00 to 6.52
O=C(c1ccc(Nc2nc(NC3CCCCC3)c3c(C(F)(F)F)c[nH]c3n2)c2c1CCO2)N1CCOCC1 [Example 454, (7-((4-(cyclo-hexylamino)-5-(trifluoromethyl)-7H-pyrrolo[2,3-d]pyrimidin-2-yl)amino)-2,3-dihydrobenzo-furan-4-yl) (morpholino) methanone] | 6.00 to 6.52 | > 7.00 | 6.00 to 6.52
O=C(c1ccc(Nc2nc(NC3CCOCC3)c3c(C(F)(F)F)c[nH]c3n2)c2c1CCO2)N1CCOCC1 [Example 456, morpholino(7-((4-((tetrahydro-2H-pyran-4-yl)amino)-5-(trifluoromethyl)-7H-pyrrolo[2,3-d]pyrimidin-2-yl)amino)-2,3-dihydrobenzo-furan-4-yl)methanone] | > 7.00 | > 7.00 | 6.00 to 6.52

— patent publication US20230066011A1, “PYRROLOPYRIMIDINE DERIVATIVE, AND PHARMACEUTICAL COMPOSITION FOR PREVENTING OR TREATING PROTEIN KINASE-RELATED DISEASE COMPRISING SAME AS ACTIVE INGREDIENT” (VORONOI CO., LTD., priority 2019, published 2023)
